Data reported in patent publication US20260021103A1, “IKZF2 AND CK1-ALPHA DEGRADING COMPOUNDS AND USES THEREOF” (President and Fellows of Harvard College, priority 2022, published 2026).

Key:
IKZF1 = molecular target: T1, IKZF1 (Homo sapiens, UniProt Q13422+Q96SW2); assay: Flow cytometry for measuring degradation, HEK293T GFP-POI reporter cells (IKZF1); type: cell-based; details: for IKZF1% degradation at 100 nM / IKZF1% degradation at 1 μM: 24 h, HEK293T GFP reporter; for Dmax: HEK-293T
T1 construct: expressed in transfected cells; host or cells: HEK293T (lentiviral transduction, puromycin selection, FACS sorting)
T1 sequence (Q13422 whole entry): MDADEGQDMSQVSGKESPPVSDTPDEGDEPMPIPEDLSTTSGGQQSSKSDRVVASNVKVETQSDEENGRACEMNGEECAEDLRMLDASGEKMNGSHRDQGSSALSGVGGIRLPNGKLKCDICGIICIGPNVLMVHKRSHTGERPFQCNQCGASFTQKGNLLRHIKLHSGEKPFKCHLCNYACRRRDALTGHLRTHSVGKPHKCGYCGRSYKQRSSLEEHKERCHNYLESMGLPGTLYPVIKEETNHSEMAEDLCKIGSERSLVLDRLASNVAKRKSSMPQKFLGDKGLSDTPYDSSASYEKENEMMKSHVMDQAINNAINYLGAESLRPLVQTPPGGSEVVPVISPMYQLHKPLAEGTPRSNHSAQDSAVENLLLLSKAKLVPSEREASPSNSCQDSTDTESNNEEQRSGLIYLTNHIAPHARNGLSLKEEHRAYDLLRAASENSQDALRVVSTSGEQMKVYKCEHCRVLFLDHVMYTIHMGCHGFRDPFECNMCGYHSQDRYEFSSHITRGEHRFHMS
T1 sequence (Q96SW2 whole entry): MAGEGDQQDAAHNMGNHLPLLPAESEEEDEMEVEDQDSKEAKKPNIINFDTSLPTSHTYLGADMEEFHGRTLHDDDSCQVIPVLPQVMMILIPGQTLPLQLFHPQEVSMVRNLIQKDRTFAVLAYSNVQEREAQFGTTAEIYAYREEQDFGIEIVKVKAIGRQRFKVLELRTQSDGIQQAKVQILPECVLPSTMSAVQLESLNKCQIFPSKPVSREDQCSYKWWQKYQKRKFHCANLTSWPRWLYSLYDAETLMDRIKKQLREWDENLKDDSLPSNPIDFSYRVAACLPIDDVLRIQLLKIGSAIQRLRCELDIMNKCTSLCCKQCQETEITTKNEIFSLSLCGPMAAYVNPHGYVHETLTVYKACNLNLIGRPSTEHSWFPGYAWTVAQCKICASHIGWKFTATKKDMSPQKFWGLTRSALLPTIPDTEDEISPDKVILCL
T1 sequence (Q16531 whole entry partner): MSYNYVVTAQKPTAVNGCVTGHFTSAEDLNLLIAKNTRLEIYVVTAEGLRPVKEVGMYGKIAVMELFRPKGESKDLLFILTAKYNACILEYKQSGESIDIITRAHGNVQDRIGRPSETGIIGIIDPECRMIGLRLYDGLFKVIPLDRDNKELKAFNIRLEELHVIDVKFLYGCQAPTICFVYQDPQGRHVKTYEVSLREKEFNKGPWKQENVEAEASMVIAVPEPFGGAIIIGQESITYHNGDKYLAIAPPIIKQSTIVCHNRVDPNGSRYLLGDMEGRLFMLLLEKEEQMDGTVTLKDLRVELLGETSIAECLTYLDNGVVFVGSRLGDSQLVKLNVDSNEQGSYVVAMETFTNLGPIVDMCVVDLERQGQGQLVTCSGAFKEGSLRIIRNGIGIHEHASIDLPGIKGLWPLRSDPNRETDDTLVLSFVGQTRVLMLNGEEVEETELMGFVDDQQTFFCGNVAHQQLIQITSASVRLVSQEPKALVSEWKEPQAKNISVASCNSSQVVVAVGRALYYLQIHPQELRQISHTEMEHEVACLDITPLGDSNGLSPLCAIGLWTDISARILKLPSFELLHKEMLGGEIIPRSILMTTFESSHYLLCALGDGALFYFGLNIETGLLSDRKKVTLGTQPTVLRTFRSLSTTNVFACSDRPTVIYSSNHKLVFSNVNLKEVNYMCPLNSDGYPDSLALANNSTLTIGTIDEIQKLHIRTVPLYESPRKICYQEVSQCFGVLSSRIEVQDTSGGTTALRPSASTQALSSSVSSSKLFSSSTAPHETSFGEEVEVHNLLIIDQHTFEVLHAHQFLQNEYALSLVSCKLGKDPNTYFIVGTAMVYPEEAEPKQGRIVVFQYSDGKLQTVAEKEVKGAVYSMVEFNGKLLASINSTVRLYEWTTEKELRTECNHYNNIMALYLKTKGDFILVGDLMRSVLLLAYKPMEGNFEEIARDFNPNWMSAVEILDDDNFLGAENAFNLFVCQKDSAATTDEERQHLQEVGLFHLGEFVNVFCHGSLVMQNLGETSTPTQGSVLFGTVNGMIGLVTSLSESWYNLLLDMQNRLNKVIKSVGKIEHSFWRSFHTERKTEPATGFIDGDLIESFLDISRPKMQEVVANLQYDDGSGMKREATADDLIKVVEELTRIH

IKZF2 = molecular target: T2, IKZF2 (Homo sapiens, UniProt Q96SW2+Q9UKS7); assay: Flow cytometry for measuring degradation, HEK293T GFP-POI reporter cells (IKZF2); type: cell-based; details: for IKZF2% degradation at 100 nM / IKZF2% degradation at 1 μM: 24 h, HEK293T GFP reporter; for Dmax: HEK-293T; for Dmax / DC50: Table 3
T2 construct: expressed in transfected cells; host or cells: HEK293T (lentiviral transduction, puromycin selection, FACS sorting)
T2 sequence (Q9UKS7 whole entry): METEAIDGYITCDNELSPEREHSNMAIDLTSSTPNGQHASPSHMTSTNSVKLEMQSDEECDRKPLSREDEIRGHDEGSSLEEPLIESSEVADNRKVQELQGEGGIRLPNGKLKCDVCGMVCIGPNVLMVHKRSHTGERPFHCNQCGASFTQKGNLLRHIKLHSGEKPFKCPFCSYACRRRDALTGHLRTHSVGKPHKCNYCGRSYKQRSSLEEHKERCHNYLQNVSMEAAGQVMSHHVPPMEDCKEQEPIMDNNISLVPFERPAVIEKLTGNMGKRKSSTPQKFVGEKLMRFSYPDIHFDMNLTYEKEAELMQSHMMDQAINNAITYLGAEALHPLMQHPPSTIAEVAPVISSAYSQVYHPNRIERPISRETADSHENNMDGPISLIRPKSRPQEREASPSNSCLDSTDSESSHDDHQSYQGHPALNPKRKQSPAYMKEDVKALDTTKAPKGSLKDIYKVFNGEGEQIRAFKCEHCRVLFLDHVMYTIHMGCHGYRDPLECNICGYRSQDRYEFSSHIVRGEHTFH
T2 sequence (Q96SW2 whole entry): as the sequence (Q96SW2 whole entry) above
T2 sequence (Q16531 whole entry partner): as the sequence (Q16531 whole entry partner) above

CK1α = molecular target: T3, CK1α (Homo sapiens, UniProt P48729+Q96SW2); assay: Flow cytometry for measuring degradation, HEK293T GFP-POI reporter cells (CK1α); type: cell-based; details: for CK1α % degradation at 100 nM / CK1α % degradation at 1 μM: 24 h, HEK293T GFP reporter; for Dmax: CK1, read-out: Dmax CK1a (%); for Dmax / DC50: Table 3; for DC50: read-out: DC50 CK1a
T3 construct: expressed in transfected cells; host or cells: HEK293T (lentiviral transduction, puromycin selection, FACS sorting)
T3 sequence (P48729 whole entry): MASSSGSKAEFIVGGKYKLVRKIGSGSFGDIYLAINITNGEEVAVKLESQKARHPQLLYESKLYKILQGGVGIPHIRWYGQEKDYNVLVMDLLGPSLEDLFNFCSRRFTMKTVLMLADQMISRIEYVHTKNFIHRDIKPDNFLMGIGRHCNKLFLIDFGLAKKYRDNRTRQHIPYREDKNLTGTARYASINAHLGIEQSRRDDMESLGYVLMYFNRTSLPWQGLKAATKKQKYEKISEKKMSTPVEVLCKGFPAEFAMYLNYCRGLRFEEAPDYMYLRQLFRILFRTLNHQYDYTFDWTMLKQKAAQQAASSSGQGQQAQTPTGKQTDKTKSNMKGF
T3 sequence (Q96SW2 whole entry): as the sequence (Q96SW2 whole entry) above
T3 sequence (Q16531 whole entry partner): as the sequence (Q16531 whole entry partner) above

GSPT1 = GSPT1 (Homo sapiens, UniProt P15170+Q96SW2); assay: Flow cytometry for measuring degradation, HEK293T GFP-POI reporter cells (GSPT1); type: cell-based; set-up: expressed in transfected cells; host or cells: HEK293T; details: for GSPT1% degradation at 100 nM / GSPT1% degradation at 1 μM: 24 h, HEK293T GFP reporter; for Dmax: HEK-293T, Table 3
Chain of GSPT1 (P15170 whole entry): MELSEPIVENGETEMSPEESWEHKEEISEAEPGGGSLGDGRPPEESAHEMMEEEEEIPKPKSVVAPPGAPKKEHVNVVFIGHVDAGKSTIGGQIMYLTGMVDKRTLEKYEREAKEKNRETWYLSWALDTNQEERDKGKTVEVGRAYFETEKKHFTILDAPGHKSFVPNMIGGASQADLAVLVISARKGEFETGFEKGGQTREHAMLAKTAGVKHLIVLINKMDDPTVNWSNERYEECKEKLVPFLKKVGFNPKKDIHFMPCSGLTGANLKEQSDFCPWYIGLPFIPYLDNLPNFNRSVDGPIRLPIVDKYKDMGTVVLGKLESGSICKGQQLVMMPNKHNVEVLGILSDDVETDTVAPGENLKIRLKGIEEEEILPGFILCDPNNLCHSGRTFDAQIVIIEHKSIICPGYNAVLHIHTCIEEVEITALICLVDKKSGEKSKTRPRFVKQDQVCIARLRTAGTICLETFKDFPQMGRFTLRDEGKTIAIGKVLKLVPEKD
Chain of GSPT1 (Q96SW2 whole entry): as the sequence (Q96SW2 whole entry) above
Chain of GSPT1 (Q16531 whole entry partner): as the sequence (Q16531 whole entry partner) above

[1] = In vitro solubility in DMSO; type: physicochemical; details: DMSO, organic solvent or mixture

| Structure (SMILES) | IKZF1% degradation at 100 nM (IKZF1) [%] | IKZF1% degradation at 1 μM (IKZF1) [%] | IKZF2% degradation at 100 nM (IKZF2) [%] | IKZF2% degradation at 1 μM (IKZF2) [%] | CK1α % degradation at 100 nM (CK1α) [%] | CK1α % degradation at 1 μM (CK1α) [%] | GSPT1% degradation at 100 nM (GSPT1) [%] | GSPT1% degradation at 1 μM (GSPT1) [%] | Dmax (IKZF1; Table 3) [%] | Dmax (IKZF2) [%] | DC50 (IKZF2) [µM] | Dmax (CK1α) [%] | DC50 (CK1α) [µM] | solubility [1] [mM] | Dmax (GSPT1) [%] | DC50 (IKZF1; Table 3) [µM] |
| --- | --- | --- | --- | --- | --- | --- | --- | --- | --- | --- | --- | --- | --- | --- | --- | --- |
| COc1ccc2c(c1)OCC(C(=O)Nc1ccc3c(c1)CN(C1CCC(=O)NC1=O)C3=O)=C2 (centres unmarked) [DEG-74, N-(2-(2,6-dioxopiperidin-3-yl)-1-oxoisoindolin-5-yl)-7-methoxy-2H-chromene-3-carboxamide] | 4.3 ± 0.5 | 32.5 ± 0.4 | 57.1 ± 1.1 | 96 ± 0 | 59.5 ± 1.1 | 64.8 ± 0.6 | 9 ± 2.6 | 37.5 ± 2.1 | – | – | – | – | – | – | – | – |
| COc1cc(Oc2ccccc2)ccc1C(=O)Nc1ccc2c(c1)CN(C1CCC(=O)NC1=O)C2=O (centres unmarked) [DEG-75, N-(2-(2,6-dioxopiperidin-3-yl)-1-oxoisoindolin-5-yl)-2-methoxy-4-phenoxybenzamide] | 2.4 ± 1.1 | 7 ± 0.4 | 54.6 ± 1.1 | 83.3 ± 0.3 | 48.1 ± 2.2 | 64 ± 1.5 | 0.4 ± 1.4 | 12.6 ± 1.2 | – | – | – | – | – | – | – | – |
| COc1ccc(Oc2ccc(C(=O)Nc3ccc4c(c3)CN(C3CCC(=O)NC3=O)C4=O)cc2)cc1 (centres unmarked) [DEG-70, N-(2-(2,6-dioxopiperidin-3-yl)-1-oxoisoindolin-5-yl)-4-(4-methoxyphenoxy)benzamide] | 6.5 ± 1.4 | 16.2 ± 0.6 | 53.6 ± 0.6 | 84.5 ± 0.3 | 44.9 ± 3.4 | 55.8 ± 5.6 | 4.3 ± 1.1 | 4.8 ± 0.4 | – | – | – | – | – | – | – | – |
| COc1ccc2c(c1)C=C(C(=O)Nc1ccc3c(c1)CN(C1CCC(=O)NC1=O)C3=O)CO2 (centres unmarked) [DEG-78, N-(2-(2,6-dioxopiperidin-3-yl)-1-oxoisoindolin-5-yl)-6-methoxy-2H-chromene-3-carboxamide] | 15.7 ± 1.1 | 33.9 ± 0.9 | 75 ± 0.8 | 90.3 ± 0 | 65.5 ± 1.3 | 69.5 ± 1.4 | 9.2 ± 0.8 | 14.4 ± 0.5 | – | – | – | – | – | – | – | – |
| COc1ccc(/C=C/C(=O)Nc2ccc3c(c2)CN(C2CCC(=O)NC2=O)C3=O)cc1 (centres unmarked) [DEG-60, (E)-N-(2-(2,6-dioxopiperidin-3-yl)-1-oxoisoindolin-5-yl)-3-(4-methoxyphenyl)acrylamide] | 17.6 ± 0.8 | 40.3 ± 0.9 | 74.7 ± 0.3 | 89.5 ± 0.2 | 64.3 ± 1.3 | 68.3 ± 1.2 | 11.6 ± 1.4 | 16.5 ± 2 | – | – | – | – | – | – | – | – |
| COc1ccc(CCC(=O)Nc2ccc3c(c2)CN(C2CCC(=O)NC2=O)C3=O)cc1 (centres unmarked) [DEG-57] | 81.9 ± 0.7 | 92.5 ± 0.2 | 76.2 ± 0.4 | 88.6 ± 0.2 | 40.3 ± 11.2 | 54.1 ± 2.1 | 11.7 ± 1.3 | 9.9 ± 0.8 | – | – | – | – | – | – | – | – |
| O=C1CCC(N2Cc3cc(NC(=O)c4cccc(C(=O)c5ccccc5)c4)ccc3C2=O)C(=O)N1 (centres unmarked) [DEG-51, 3-benzoyl-N-(2-(2,6-dioxopiperidin-3-yl)-1-oxoisoindolin-5-yl)benzamide] | 59.5 ± 0.2 | 84 ± 0.2 | 82.6 ± 0.3 | 93.9 ± 0 | 63.7 ± 1.1 | 69.8 ± 0.5 | 9 ± 1.6 | 13.7 ± 0.3 | – | – | – | – | – | – | – | – |
| O=C1CCC(N2Cc3cc(NC(=O)c4ccc5ncsc5c4)ccc3C2=O)C(=O)N1 (centres unmarked) [DEG-72, N-(2-(2,6-dioxopiperidin-3-yl)-1-oxoisoindolin-5-yl)benzo[d]thiazole-6-carboxamide] | 2.7 ± 1.2 | 6.5 ± 1.2 | 41.8 ± 2 | 82.5 ± 0.9 | 33.2 ± 3.2 | 54.5 ± 3.8 | −1.7 ± 3.4 | −0.9 ± 2.6 | – | – | – | – | – | – | – | – |
| O=C1CCC(N2Cc3cc(NC(=O)c4ccc5c(c4)OCO5)ccc3C2=O)C(=O)N1 (centres unmarked) [DEG-54, N-(2-(2,6-dioxopiperidin-3-yl)-1-oxoisoindolin-5-yl)benzo[d][1,3]dioxole-5-carboxamide] | 7.4 ± 0.8 | 9.7 ± 1.4 | 49.2 ± 0.2 | 84.1 ± 0.3 | 33.5 ± 10 | 57.6 ± 3.5 | 5.2 ± 1.5 | 3.3 ± 1.7 | – | – | – | – | – | – | – | – |
| COc1cccc2c1C=C(C(=O)Nc1ccc3c(c1)CN(C1CCC(=O)NC1=O)C3=O)CO2 (centres unmarked) [DEG-79, N-(2-(2,6-dioxopiperidin-3-yl)-1-oxoisoindolin-5-yl)-5-methoxy-2H-chromene-3-carboxamide] | 39.4 ± 0.8 | 70.3 ± 0.2 | 74.6 ± 0.3 | 93 ± 0.1 | 59.4 ± 1 | 38.1 ± 3.4 | 24 ± 1 | 44.3 ± 1.3 | – | – | – | – | – | – | – | – |

Results, then the compound that gave them:

| IKZF1% degradation at 100 nM (IKZF1) [%] | IKZF1% degradation at 1 μM (IKZF1) [%] | IKZF2% degradation at 100 nM (IKZF2) [%] | IKZF2% degradation at 1 μM (IKZF2) [%] | CK1α % degradation at 100 nM (CK1α) [%] | CK1α % degradation at 1 μM (CK1α) [%] | GSPT1% degradation at 100 nM (GSPT1) [%] | GSPT1% degradation at 1 μM (GSPT1) [%] | Dmax (IKZF1; Table 3) [%] | Dmax (IKZF2) [%] | DC50 (IKZF2) [µM] | Dmax (CK1α) [%] | DC50 (CK1α) [µM] | solubility [1] [mM] | Dmax (GSPT1) [%] | DC50 (IKZF1; Table 3) [µM] | Structure (SMILES) |
| --- | --- | --- | --- | --- | --- | --- | --- | --- | --- | --- | --- | --- | --- | --- | --- | --- |
| 6 ± 0.1 | 6.3 ± 1.6 | 60 ± 1 | 89 ± 0.2 | 54.5 ± 0.6 | 71.1 ± 0.6 | −1.9 ± 1.4 | 7.8 ± 1.4 | – | – | – | – | – | – | – | – | O=C1CCC(N2Cc3cc(NC(=O)c4ccc5cc(O)ccc5c4)ccc3C2=O)C(=O)N1 (centres unmarked) [DEG-90, N-(2-(2,6-dioxopiperidin-3-yl)-1-oxoisoindolin-5-yl)-6-hydroxy-2-naphthamide] |
| 12.9 ± 1 | 47.5 ± 0.2 | 80.4 ± 0.5 | 94.4 ± 0.2 | 61.9 ± 0.4 | 30.2 ± 2.3 | 21.8 ± 2.3 | 49 ± 0.8 | – | – | – | – | – | – | – | – | O=C1CCC(N2Cc3cc(NC(=O)C4=Cc5ccc(Br)cc5OC4)ccc3C2=O)C(=O)N1 (centres unmarked) [DEG-83, 7-bromo-N-(2-(2,6-dioxopiperidin-3-yl)-1-oxoisoindolin-5-yl)-2H-chromene-3-carboxamide] |
| 3.6 | 5.0 | 21.4 | 57.0 | 9.2 | 26.3 | 8.6 | 10.1 | 8.3 | 79.5 | 0.34 | 40.3 | 0.503 | > 100 | 14.2 | – | CC(=O)N1CCC[C@H]1C(=O)Nc1ccc2c(c1)CN(C1CCC(=O)NC1=O)C2=O (stereo partly drawn) [DEG-96, (2S)-1-acetyl-N-(2-(2,6-dioxopiperidin-3-yl)-1-oxoisoindolin-5-yl)pyrrolidine-2-carboxamide] |
| 50.9 | 79.7 | 35.8 | 68.1 | 18.2 | 41.2 | 5.5 | 6.2 | 88 | 80.5 | 0.143 | 54.1 | 0.175 | > 100 | 0 | 0.072 | C[C@H](NC(=O)c1ccccc1)C(=O)Nc1ccc2c(c1)CN(C1CCC(=O)NC1=O)C2=O (stereo partly drawn) [DEG-98, N-((2S)-1-((2-(2,6-dioxopiperidin-3-yl)-1-oxoisoindolin-5-yl)amino)-1-oxopropan-2-yl)benzamide] |
| 8.7 | 20.8 | 51.8 | 85.2 | 51.3 | 71.5 | 9.3 | 13.2 | 30.5 | 92.8 | 0.0788 | 76.7 | 0.0425 | – | 13.7 | – | CN1C(=O)COc2cc(C(=O)Nc3ccc4c(c3)CN(C3CCC(=O)NC3=O)C4=O)ccc21 (centres unmarked) [DEG-94, N-(2-(2,6-dioxopiperidin-3-yl)-1-oxoisoindolin-5-yl)-4-methyl-3-oxo-3,4-dihydro-2H-benzo[b][1,4]oxazine-7-carboxamide] |
| 8.6 ± 0.1 | 24 ± 0.1 | 72.6 ± 0.9 | 91.5 ± 0.2 | 63.5 ± 1.5 | 66.9 ± 1.1 | 14.3 ± 2.1 | 28 ± 0.8 | – | – | – | – | – | – | – | – | Cc1ccc2c(c1)OCC(C(=O)Nc1ccc3c(c1)CN(C1CCC(=O)NC1=O)C3=O)=C2 (centres unmarked) [DEG-80, N-(2-(2,6-dioxopiperidin-3-yl)-1-oxoisoindolin-5-yl)-7-methyl-2H-chromene-3-carboxamide] |
